What was measured:
[1] = tested on: A-549; test: In vitro cytotoxicity, SRB assay, lung cancer cell line A-549; format: cell-based, human; settings: Homo sapiens, A549; A-549 (lung), 10 μM, 48 h exposure; read-out: % of growth inhibition
Excerpt: (§1) The benzothiazole hybrids has been tested against seven human tumor cell lines derived from six cancer types (lung cancer, colon cancer, CNS cancer, ovarian cancer, prostate cancer and breast cancer). For these compounds results are expressed as percent of cell growth inhibition relative to that of untreated control cells.

[2] = tested on: MCF7; test: In vitro cytotoxicity, SRB assay, breast cancer cell line MCF7; format: cell-based, human; settings: Homo sapiens, 10 μM, 48 h exposure, read-out: % of growth inhibition
Excerpt: as §1

[3] = tested on: SW-620; test: In vitro cytotoxicity, SRB assay, colon cancer cell line SW-620; format: cell-based; settings: Homo sapiens, SW-620 (colon), 48 h exposure, read-out: % of growth inhibition
Method: as §1, with “cells. A protocol of 48 h continuous drug exposure has been used, and a sulforhodamine B (SRB) protein assay was used to estimate cell viability or growth.” for “cells.”
(§2) The compounds 9b, 9h, 9m, 9r, 15c, 15h, 15m, 15r, 10b, 10h, 10m, 10r, 16c, 16h and 16m were evaluated for in vitro anticancer activity against seven human tumor cells derived from six cancer types (lung cancer, colon cancer, CNS cancer, ovarian cancer, prostate cancer and breast cancer) at concentration of 10 μM and the results are shown in Table 1.

[4] = tested on: PC-3; test: In vitro cytotoxicity, SRB assay, prostate cancer cell line PC-3; format: cell-based, human; settings: Homo sapiens; PC-3 (prostate), 10 μM, 48 h exposure; read-out: % of growth inhibition
Excerpt: as §1

[5] = tested on: IGR-OV-1; test: In vitro cytotoxicity, SRB assay, ovarian cancer cell line IGR-OV-1; format: cell-based, human; settings: Homo sapiens, IGROV-1; IGR-OV-1 (ovarian), 10 μM, 48 h exposure; read-out: % of growth inhibition
Excerpt: as §1

[6] = tested on: SF-295; test: In vitro cytotoxicity, SRB assay, CNS cancer cell line SF-295; format: cell-based, human; settings: Homo sapiens; SF-295 (CNS), 10 μM, 48 h exposure; read-out: % of growth inhibition
Excerpt: as §1

[7] = tested on: human tumor cell lines; test: In vitro anticancer activity, panel of seven human tumor cell lines (SRB assay); format: cell-based; settings: for inhibition at 10 µM: Homo sapiens, range over the cell lines, exposure period of at least 48 hrs, read-out: percentage growth inhibition for invitro anticancer activity; for cytotoxic activity in words: various human tumour cell lines
Method: as §1, with “cells. A protocol of 48 h continuous drug exposure has been used, and a sulforhodamine B (SRB) protein assay was used to estimate cell viability or growth.” for “cells.”
as §2

Structure (SMILES) | inhibition at 10 µM [1] | inhibition at 10 µM [2] | inhibition at 10 µM [3] | inhibition at 10 µM [4] | inhibition at 10 µM [5] | inhibition at 10 µM [6] | inhibition at 10 µM [7] | cytotoxic activity in words [7]
COc1ccc(/C=C\c2cc(OC)c(OC)c(OC)c2)cc1OCCCCN1CCN(CCCCOc2cc(-c3nc4ccccc4s3)ccc2OC)CC1 [Compound 15m, 2-[4-methoxy-3-({4-[4-(4-{2-methoxy-5-[(Z)-2-(3,4,5-trimethoxyphenyl)-1-ethenyl]phenoxy}butyl)piperazino]butyl}oxy)phenyl]-1,3-benzothiazole] | 100% | 97% | 99% | 60% | 99% | 98% | 1 to 100% | increase in activity
COc1ccc(/C=C\c2cc(OC)c(OC)c(OC)c2)cc1OCCCCN1CCN(CCCCOc2ccc(-c3nc4ccccc4s3)cc2)CC1 [Compound 15h, 2-[4-({4-[4-(4-{2-methoxy-5-[(Z)-2-(3,4,5-trimethoxyphenyl)-1-ethenyl]phenoxy}butyl)piperazino]butyl}oxy)phenyl]-1,3-benzothiazole] | 91% | 93% | 72% | 96% | 83% | 98% | 1 to 100% | increase in activity
COc1ccc(/C=C/C(=O)c2cc(OC)c(OC)c(OC)c2)cc1OCCCCN1CCN(CCCCOc2ccc(-c3nc4ccccc4s3)cc2)CC1 [Compound 16h, (E)-3-(3{-[4-(4-{4-[4-(1,3-benzothiazol-2-yl)phenoxy]butyl}piperazino)butyl]oxy}-4-methoxyphenyl)-1-(3,4,5-trimethoxyphenyl)-2-propen-1-one] | 59% | 84% | 0% | 67% | 73% | 63% | 1 to 100% | 
COc1ccc(/C=C/C(=O)c2cc(OC)c(OC)c(OC)c2)cc1OCCCCOc1cc(-c2nc3ccccc3s2)ccc1OC [Compound 10m, (E)-3-(3-{4-[5-(1,3-benzothiazol-2-yl)-2-methoxyphenoxy]butoxy}-4-methoxyphenyl)-1-(3,4,5-trimethoxyphenyl)-2-propen-1-one] | 7% | 24% | 27% | 0% | 17% | 14% | 1 to 100% | 
COc1ccc(/C=C\c2cc(OC)c(OC)c(OC)c2)cc1OCCCCOc1cccc(-c2nc3ccccc3s2)c1 [Compound 9r, 2-[3-(4-{2-methoxy-5-[(Z)-2-(3,4,5-trimethoxyphenyl)-1-ethenyl]phenoxy}butoxy)phenyl]-1,3-benzothiazole] | 59% | 52% | 22% | 59% | 48% | 71% | 1 to 100% | 
COc1ccc(/C=C/C(=O)c2cc(OC)c(OC)c(OC)c2)cc1OCCCCN1CCN(CCCCOc2cc(-c3nc4ccccc4s3)ccc2OC)CC1 [Compound 16m, (E)-3-(3{-[4-(4-{4-[5-(1,3-benzothiazol-2-yl)-2-methoxyphenoxy]butyl}piperazino)butyl]oxy}-4-methoxyphenyl)-1-(3,4,5-trimethoxyphenyl)-2-propen-1-one] | 100% | 57% | 0% | 2% | 85% | 15% | 1 to 100% | 
COc1ccc(/C=C/C(=O)c2cc(OC)c(OC)c(OC)c2)cc1OCCCCOc1ccc(-c2nc3ccccc3s2)cc1 [Compound 10h, (E)-3-(3-{4-[4-(1,3-benzothiazol-2-yl)phenoxy]butoxy}-4-methoxyphenyl)-1-(3,4,5-trimethoxyphenyl)-2-propen-1-one] | 31% | 9% | 2% | 6% | 17% | 38% | 1 to 100% | 
